Assay results taken from patent publication US6911430B2, “Compositions and methods for treating ileus” (VipoGen, LLC, priority 2003, dated 2005).
Ends that are not written are not given here.

Test system: Male Wistar rats
Assay: Intestinal transit of Evans blue after laparotomy and manipulation of the intestines (postoperative ileus model)
Type: in vivo, rat
Conditions: single peptide approx. 150 μg per kg i.v. tail vein bolus 1 minute before surgery, skin incision, 20 minute transit period, mean
Experimental: Male Wistar rats are commonly used to study the mechanisms that regulate gastrointestinal function by several laboratories across the United States and the world. This model is well characterized experimentally and has the added advantage of providing results in a short time frame, limiting the animal's distress.
Two hours prior to start of surgery, the required amount of peptide was measured to the nearest […] and placed into 0.5 ml saline. The suspension was then vortexed for 1 minute and then incubated at room temperature for one hour after. The solution was kept refrigerated until 30 minutes before the onset of surgery. The solution was allowed to warm to room temperature for 30 minutes prior to the surgery. Following this warming period, the solution was placed into a 1 cc insulin syringe for tail vein injection 1 minute prior to surgery.
Male Wistar rats (150-250 g) were fasted for 48 hours with free access to water. This fast was necessary to empty the gastrointestinal tract so that the Evans Blue introduced after the surgery could be accurately tracked. The rats were divided into groups in a randomized way. The randomized groups were then given isoflorane anesthesia, followed by clearing of the abdominal area with 10% antibacterial iodine solution and alcohol and shaving prior to surgery. Isoflorane was administered continuously (3-5%) using a vaporizer. […] Diethyl ether can also be used for anesthesia.
Thereafter, the rats received an i.v. injection (VIP receptor antagonists, PACAP receptor antagonists, or combination thereof were delivered in saline) in the tail vein of the appropriate drug or control for its group one minute before the operation. The peptides included VIP (10-28) and PACAP (6-38). The dosage amount of each peptide administered was approximately 150 μg per kg body weight. For the combination treatment a ratio of 1:1 of a PACAP receptor antagonist to VIP receptor antagonists was used, the total peptide amount being approximately 300 μg per kg body weight. The peptide dosages were consistent animal to animal throughout the study and were administered by bolus injections.
All groups underwent a laparotomy consisting of the incision of the abdominal skin, abdominal muscle layers and peritoneum. The laparatomy was followed by evisceration and manipulation of the small intestine and the caecum. In these experiments, the caecum and small intestine were gently pulled out of the abdominal cavity, unfurled like a fan and exposed on two sterile gauzes covering the abdomen of the rat. […]
Twenty minutes later, the rats were euthanized by an overdose pentobarbital (150 mg/kg i.v. tail vein) and the intestinal transit was measured from the pylorus to the most distal point of the migration of Evans blue and expressed in cm.

Substance | % of the intestinal length traversed by Evan's Blue [%] | intestinal motility: distance Evan's Blue traveled through the intestines [cm]
PACAP(6-38) (FTDSYSRYRKQMAVKKYLAAVLGKRYKQRVKNK; ends and bridges not checked; listed as Homo sapiens) [PACAP-RA] | 32 | 23
VIP(10-28) (YTRLRKQMAVKKYLNSILN; listed as Homo sapiens) [VIP-RA] | 31 | 26
